Measurements reported in paper PMC8699473, “An Easily Expandable Multi-Drug LC-MS Assay for the Simultaneous Quantification of 57 Oral Antitumor Drugs in Human Plasma” (Cancers, 2021).

Assay: Short-term stability in spiked pooled human plasma (bench-top, 4 °C, 56 °C)

With `C[C@]12CC[C@H](O)CC1=CC[C@@H]1[C@@H]2CC[C@]2(C)C(c3cccnc3)=CC[C@@H]12` [Abiraterone] as the compound, how does the “Short-time stability (1h, 56°C) Accuracy [%]” value (validation standard 2xLLOV) read?
Its value is 46.5%.

And the “Short-time stability (24h, 4°C, without daylight) Accuracy [%]” value (validation standard 2xLLOV)?
The value was 96.9%.

And the “Short-time stability (24h, RT, with daylight) Accuracy [%]” value (validation standard 2xLLOV)?
The value was 101.7%.

What about the “Short-time stability (24h, RT, without daylight) Accuracy [%]” value (validation standard 2xLLOV) of the same compound?
The value was 101.5%.

What about the “Short-time stability (1h, 56°C) Accuracy [%]” value (validation standard LLOV) of the same compound?
Its value is 49.9%.

What about the “Short-time stability (24h, 4°C, without daylight) Accuracy [%]” value (validation standard LLOV) of the same compound?
Its value is 104.6%.

What about the “Short-time stability (24h, RT, with daylight) Accuracy [%]” value (validation standard LLOV) of the same compound?
Its value is 105.6%.

What about the “Short-time stability (24h, RT, without daylight) Accuracy [%]” value (validation standard LLOV) of the same compound?
The value was 105.2%.

What about the “Short-time stability (1h, 56°C) Accuracy [%]” value (validation standard MOV) of the same compound?
Its value is 40.7%.

And the “Short-time stability (24h, 4°C, without daylight) Accuracy [%]” value (validation standard MOV)?
The value was 97.4%.

And the “Short-time stability (24h, RT, with daylight) Accuracy [%]” value (validation standard MOV)?
The value was 103.1%.

What about the “Short-time stability (24h, RT, without daylight) Accuracy [%]” value (validation standard MOV) of the same compound?
The value was 101.1%.

What about the “Short-time stability (1h, 56°C) Accuracy [%]” value (validation standard ULOV) of the same compound?
Its value is 34.9%.

What about the “Short-time stability (24h, 4°C, without daylight) Accuracy [%]” value (validation standard ULOV) of the same compound?
Its value is 95.4%.

What about the “Short-time stability (24h, RT, with daylight) Accuracy [%]” value (validation standard ULOV) of the same compound?
The value was 103.3%.

What about the “Short-time stability (24h, RT, without daylight) Accuracy [%]” value (validation standard ULOV) of the same compound?
Its value is 102.0%.

Which “concentrations in short-term stability investigations” value (24 h, room temperature, with or without light) does the source give for `CN(C)C/C=C/C(=O)Nc1cc2c(Nc3ccc(F)c(Cl)c3)ncnc2cc1O[C@H]1CCOC1` [Afatinib] here?
The value was 64.3–92.5%.

And the “Short-time stability (1h, 56°C) Accuracy [%]” value (validation standard 2xLLOV)?
The value was 30.4%.

And the “Short-time stability (24h, 4°C, without daylight) Accuracy [%]” value (validation standard 2xLLOV)?
The value was 85.5%.

What about the “Short-time stability (24h, RT, with daylight) Accuracy [%]” value (validation standard 2xLLOV) of the same compound?
The value was 80.8%.

What about the “Short-time stability (24h, RT, without daylight) Accuracy [%]” value (validation standard 2xLLOV) of the same compound?
Its value is 92.5%.

And the “Short-time stability (1h, 56°C) Accuracy [%]” value (validation standard LLOV)?
Its value is 7.2%.

What about the “Short-time stability (24h, 4°C, without daylight) Accuracy [%]” value (validation standard LLOV) of the same compound?
Its value is 85.9%.

What about the “Short-time stability (24h, RT, with daylight) Accuracy [%]” value (validation standard LLOV) of the same compound?
Its value is 64.3%.

And the “Short-time stability (24h, RT, without daylight) Accuracy [%]” value (validation standard LLOV)?
The value was 69.9%.

And the “Short-time stability (1h, 56°C) Accuracy [%]” value (validation standard MOV)?
Its value is 36.2%.

What about the “Short-time stability (24h, 4°C, without daylight) Accuracy [%]” value (validation standard MOV) of the same compound?
Its value is 97.9%.

What about the “Short-time stability (24h, RT, with daylight) Accuracy [%]” value (validation standard MOV) of the same compound?
Its value is 89.4%.

And the “Short-time stability (24h, RT, without daylight) Accuracy [%]” value (validation standard MOV)?
Its value is 91.4%.

What about the “Short-time stability (1h, 56°C) Accuracy [%]” value (validation standard ULOV) of the same compound?
The value was 33.2%.

What about the “Short-time stability (24h, 4°C, without daylight) Accuracy [%]” value (validation standard ULOV) of the same compound?
Its value is 92.8%.

What about the “Short-time stability (24h, RT, with daylight) Accuracy [%]” value (validation standard ULOV) of the same compound?
The value was 77.8%.

What about the “Short-time stability (24h, RT, without daylight) Accuracy [%]” value (validation standard ULOV) of the same compound?
The value was 82.7%.

For `O=C1CN2Cc3c(ccc(Cl)c3Cl)N=C2N1` [Anagrelide], which “Short-time stability (1h, 56°C) Accuracy [%]” value (validation standard 2xLLOV) is on record?
The value was 66.3%.

And the “Short-time stability (24h, 4°C, without daylight) Accuracy [%]” value (validation standard 2xLLOV)?
The value was 104.2%.

What about the “Short-time stability (24h, RT, with daylight) Accuracy [%]” value (validation standard 2xLLOV) of the same compound?
Its value is 84.8%.

What about the “Short-time stability (24h, RT, without daylight) Accuracy [%]” value (validation standard 2xLLOV) of the same compound?
Its value is 84.4%.

And the “Short-time stability (1h, 56°C) Accuracy [%]” value (validation standard LLOV)?
Its value is 55.6%.

What about the “Short-time stability (24h, 4°C, without daylight) Accuracy [%]” value (validation standard LLOV) of the same compound?
Its value is 90.4%.

What about the “Short-time stability (24h, RT, with daylight) Accuracy [%]” value (validation standard LLOV) of the same compound?
The value was 78.3%.

And the “Short-time stability (24h, RT, without daylight) Accuracy [%]” value (validation standard LLOV)?
The value was 67.4%.

And the “Short-time stability (1h, 56°C) Accuracy [%]” value (validation standard MOV)?
Its value is 52.9%.

And the “Short-time stability (24h, 4°C, without daylight) Accuracy [%]” value (validation standard MOV)?
Its value is 96.9%.

And the “Short-time stability (24h, RT, with daylight) Accuracy [%]” value (validation standard MOV)?
Its value is 96.0%.

What about the “Short-time stability (24h, RT, without daylight) Accuracy [%]” value (validation standard MOV) of the same compound?
The value was 88.7%.

What about the “Short-time stability (1h, 56°C) Accuracy [%]” value (validation standard ULOV) of the same compound?
Its value is 46.2%.

What about the “Short-time stability (24h, 4°C, without daylight) Accuracy [%]” value (validation standard ULOV) of the same compound?
Its value is 93.5%.

And the “Short-time stability (24h, RT, with daylight) Accuracy [%]” value (validation standard ULOV)?
The value was 98.5%.

And the “Short-time stability (24h, RT, without daylight) Accuracy [%]” value (validation standard ULOV)?
Its value is 94.1%.

Which results are given for `Cn1cnc2c(F)c(Nc3ccc(Br)cc3F)c(C(=O)NOCCO)cc21` [Binimetinib]?
Short-time stability (1h, 56°C) Accuracy [%] (validation standard 2xLLOV): 55.9%; Short-time stability (24h, 4°C, without daylight) Accuracy [%] (validation standard 2xLLOV): 105.5%; Short-time stability (24h, RT, with daylight) Accuracy [%] (validation standard 2xLLOV): 89.3%; Short-time stability (24h, RT, without daylight) Accuracy [%] (validation standard 2xLLOV): 86.4%; Short-time stability (1h, 56°C) Accuracy [%] (validation standard LLOV): 68.1%; Short-time stability (24h, 4°C, without daylight) Accuracy [%] (validation standard LLOV): 117.1%; Short-time stability (24h, RT, with daylight) Accuracy [%] (validation standard LLOV): 111.6%; Short-time stability (24h, RT, without daylight) Accuracy [%] (validation standard LLOV): 106.0%; Short-time stability (1h, 56°C) Accuracy [%] (validation standard MOV): 42.6%; Short-time stability (24h, 4°C, without daylight) Accuracy [%] (validation standard MOV): 94.8%; Short-time stability (24h, RT, with daylight) Accuracy [%] (validation standard MOV): 86.5%; Short-time stability (24h, RT, without daylight) Accuracy [%] (validation standard MOV): 89.2%; Short-time stability (1h, 56°C) Accuracy [%] (validation standard ULOV): 36.7%; Short-time stability (24h, 4°C, without daylight) Accuracy [%] (validation standard ULOV): 96.8%; Short-time stability (24h, RT, with daylight) Accuracy [%] (validation standard ULOV): 101.8%; Short-time stability (24h, RT, without daylight) Accuracy [%] (validation standard ULOV): 97.3%

For `COc1cc2nccc(Oc3ccc(NC(=O)C4(C(=O)Nc5ccc(F)cc5)CC4)cc3)c2cc1OC` [Cabozantinib], which “Short-time stability (1h, 56°C) Accuracy [%]” value (validation standard 2xLLOV) is on record?
Its value is 49.1%.

What about the “Short-time stability (24h, 4°C, without daylight) Accuracy [%]” value (validation standard 2xLLOV) of the same compound?
The value was 101.8%.

What about the “Short-time stability (24h, RT, with daylight) Accuracy [%]” value (validation standard 2xLLOV) of the same compound?
Its value is 103.6%.

What about the “Short-time stability (1h, 56°C) Accuracy [%]” value (validation standard LLOV) of the same compound?
Its value is 30.2%.

And the “Short-time stability (24h, 4°C, without daylight) Accuracy [%]” value (validation standard LLOV)?
The value was 98.5%.

And the “Short-time stability (24h, RT, with daylight) Accuracy [%]” value (validation standard LLOV)?
Its value is 91.8%.

And the “Short-time stability (1h, 56°C) Accuracy [%]” value (validation standard MOV)?
Its value is 51.8%.

What about the “Short-time stability (24h, 4°C, without daylight) Accuracy [%]” value (validation standard MOV) of the same compound?
The value was 102.2%.

What about the “Short-time stability (24h, RT, with daylight) Accuracy [%]” value (validation standard MOV) of the same compound?
The value was 104.9%.

And the “Short-time stability (1h, 56°C) Accuracy [%]” value (validation standard ULOV)?
Its value is 44.1%.

And the “Short-time stability (24h, 4°C, without daylight) Accuracy [%]” value (validation standard ULOV)?
The value was 96.1%.

What does the source list for `O=C(c1ccc(F)c(F)c1Nc1ccc(I)cc1F)N1CC(O)([C@@H]2CCCCN2)C1` [Cobimetinib]?
Short-time stability (1h, 56°C) Accuracy [%] (validation standard 2xLLOV): 51.4%; Short-time stability (24h, 4°C, without daylight) Accuracy [%] (validation standard 2xLLOV): 100.9%; Short-time stability (24h, RT, with daylight) Accuracy [%] (validation standard 2xLLOV): 98.3%; Short-time stability (24h, RT, without daylight) Accuracy [%] (validation standard 2xLLOV): 98.8%; Short-time stability (1h, 56°C) Accuracy [%] (validation standard LLOV): 42.7%; Short-time stability (24h, 4°C, without daylight) Accuracy [%] (validation standard LLOV): 99.9%; Short-time stability (24h, RT, with daylight) Accuracy [%] (validation standard LLOV): 98.6%; Short-time stability (24h, RT, without daylight) Accuracy [%] (validation standard LLOV): 99.8%; Short-time stability (1h, 56°C) Accuracy [%] (validation standard MOV): 47.6%; Short-time stability (24h, 4°C, without daylight) Accuracy [%] (validation standard MOV): 102.5%; Short-time stability (24h, RT, with daylight) Accuracy [%] (validation standard MOV): 102.4%; Short-time stability (24h, RT, without daylight) Accuracy [%] (validation standard MOV): 103.8%; Short-time stability (1h, 56°C) Accuracy [%] (validation standard ULOV): 41.3%; Short-time stability (24h, 4°C, without daylight) Accuracy [%] (validation standard ULOV): 97.5%; Short-time stability (24h, RT, with daylight) Accuracy [%] (validation standard ULOV): 103.8%; Short-time stability (24h, RT, without daylight) Accuracy [%] (validation standard ULOV): 100.3%

For `C[C@@H](Oc1cc(-c2cnn(C3CCNCC3)c2)cnc1N)c1c(Cl)ccc(F)c1Cl` [Crizotinib], which “Short-time stability (24h, RT, with daylight) Accuracy [%]” value (validation standard 2xLLOV) is on record?
The value was 85.9%.

What about the “Short-time stability (24h, RT, without daylight) Accuracy [%]” value (validation standard 2xLLOV) of the same compound?
The value was 92.4%.

What about the “Short-time stability (24h, RT, with daylight) Accuracy [%]” value (validation standard LLOV) of the same compound?
Its value is 62.9%.

What about the “Short-time stability (24h, RT, without daylight) Accuracy [%]” value (validation standard LLOV) of the same compound?
The value was 71.2%.

And the “Short-time stability (24h, RT, with daylight) Accuracy [%]” value (validation standard MOV)?
The value was 95.3%.

And the “Short-time stability (24h, RT, without daylight) Accuracy [%]” value (validation standard MOV)?
The value was 99.8%.

What about the “Short-time stability (24h, RT, with daylight) Accuracy [%]” value (validation standard ULOV) of the same compound?
Its value is 85.2%.

And the “Short-time stability (24h, RT, without daylight) Accuracy [%]” value (validation standard ULOV)?
The value was 89.5%.
